From EPA's ToxValDB 9.5 (doi:10.2903/j.efsa.2011.2091)
Converted amounts (≈) assume the structure as drawn.

Assays:
Anas platyrhynchos = conditions: reproductive; mortality
Colinus virginianus = conditions: acute, oral, mortality; for LC50: diet
Bibionidae = conditions: chronic/long-term; duration: 28 days; development
Daphnia magna = conditions: chronic/long-term; duration: 21 days; reproduction
Oryctolagus sp. = conditions: chronic; mortality
Apis mellifera = conditions: acute, mortality
Oncorhynchus mykiss = conditions: chronic/long-term; duration: 21 days; mortality
Lepomis macrochirus = conditions: acute; duration: 96 hours; mortality
Landoltia sp. = conditions: acute; duration: 14 days; frond number

| Structure (SMILES) | NOEC (Anas platyrhynchos) [mg/kg-day] | LD50 (Rattus norvegicus; acute, oral, mortality) [mg/kg-day] | LC50 (Colinus virginianus) [mg/kg-day] | LD50 (Colinus virginianus) [mg/kg-day] | NOEC (Bibionidae) [mg/L] | NOAEL (Rattus norvegicus; chronic, duration: 2 years) [mg/kg-day] | NOAEL (Rattus norvegicus; subchronic, oral) [mg/kg-day] | NOEC (Daphnia magna) [mg/L] | NOEL (Oryctolagus sp.) [mg/kg-day] | LC50 (Tagia sp.; acute, duration: 14 days, mortality) [mg/kg] | NOEC (Tagia sp.; chronic/long-term, duration: 56 days) [mg/kg] | LD50 (Apis mellifera; dermal) [µg/piece] | LD50 (Apis mellifera; oral, unspecified) [µg/piece] | NOEC (Oncorhynchus mykiss) [mg/L] | LC50 (Lepomis macrochirus) [mg/L] | LC50 (Landoltia sp.) [mg/L] |
| --- | --- | --- | --- | --- | --- | --- | --- | --- | --- | --- | --- | --- | --- | --- | --- | --- |
| CCCCCCC(C)OC(=O)COc1nc(F)c(Cl)c(N)c1Cl (centres undefined) [Fluroxypyr-meptyl] | 57.8 | > 2000 | > 1040 | > 2000 | 0.13 |  |  |  |  |  |  |  |  |  |  |  |
| Nc1c(Cl)c(F)nc(OCC(=O)O)c1Cl [Fluroxypyr] | 40.1 |  | > 757 | > 2000 |  | 80 | 80 | 56 | 100 | 64.8 | 3.05 | > 180 | 37.1 | 100 | 14.3 (≈ 56.1 µM) | 12.3 (≈ 48.2 µM) |
